The results in this text go back to US5965605A, “Inhibition of the binding human IgE to its receptor by tetracyclic compounds for the alleviation of IgE-mediated immune response” (Heska Corporation, priority 1997, dated 1999).

The target of assay [1] is T1, human FcεRI transfected rat basophil leukemia cell line, SX38 (Homo sapiens, UniProt P01854+P12319).
T1 construct: biotinylated recombinant IgE (mouse VH, human Cε, J558L)
As to the kind of experiment: Cell-based IgE-FcεRI binding assay. The settings on record: for IC50: read-out: IC50, inhibition of IgE-FcεRI binding (converted). The procedure: About 1×10^5 cells in 50 μl of medium were seeded in the wells of 96-well flat bottom plates. […] Forty microliters of this solution was applied to each well and incubated at room temperature for two hours. The plates were washed three times with PBS, and 40 μl of avidin-horseradish peroxidase, at 1 μg/ml in PBS, was added to each well. After an additional hour of incubation at room temperature, the plate was again washed three times with PBS. The subsequent steps for the measurement of the bound IgE were performed as described in the protein-based IgE-FcεRI binding assay.

For assay [2], the target named is human IgE / soluble FcεRI α (Fc-FcεRIα fusion protein). As to the kind of experiment: Protein-based IgE-FcεRI binding assay (ELISA). The settings on record: for % Inhibition of IgE/FcεRI binding: 10 μg/ml. The procedure:
A protein-based in vitro assay was developed to screen for compounds which block the interaction between IgE and FcεRI. This assay used human IgE and soluble FcεRI α proteins which were prepared as outlined below. As will be described more below, the assay was performed in the format of an Enzyme-linked ImmunoSorbent Assay (ELISA) as follows. ELISA plates were prepared by coating 96-well plates with soluble FcεRI α protein. In the binding step, biotinylated IgE was captured by the FcεRI α in the wells. In the detection step, bound biotinylated IgE was quantitated by the addition of avidin-horseradish peroxidase and a chromogenic substrate. For the screening of antagonists, the IgE and FcεRI binding assay was performed in the presence of various testing compounds. Compounds that inhibit the interaction between IgE and FcεRI α could be readily detected. This assay was then applied to screen tens of thousand of compounds from a diversified chemical library.
To provide IgE for the ELISA, a recombinant IgE DNA construct was built by ligating a mouse heavy chain variable region, Vh, gene fragment to a human IgE heavy chain, Cε.
The growth medium collected from the above transfected cell culture was concentrated 30-50 times by membrane filtration (Filtron, Northboro, Mass.) and passed through a column of NIP (Genosys Biotechnologies Inc.)-bovine serum albumin (BSA) sepharose. The bound IgE was subsequently eluted from NIP-BSA sepharose using 5 M MgCl2. The eluate was then dialyzed in phosphate buffered saline (PBS). The integrity of the purified IgE was analyzed by SDS-polyacrylamide gel electrophoresis.
To provide soluble FcεRI α protein for ELISA, a DNA construct was made to produce soluble FcεRI α as a protein fused to the Fc region of the human immunoglobulin G heavy chain. The protein product of the construct will he termed Fc-FcεRIα.
The culture media of the cells producing Fc-FcεRI α fusion protein was collected and passed through a Protein A Sepharose column (Repligen, Cambridge, Mass.). The bound fusion protein was eluted from the Protein A Sepharose in 100 mM sodium citrate buffer (pH 4.0) and immediately neutralized with 0.1 volume of 1M Tris-hydrochloride, pH 8. The integrity of the purified protein was analyzed by SDS-polyacrylamide gel electrophoresis.
Fc-FcεRIα was diluted to 0.4 μg/ml in PBS and was used to coat 96-well plates. One hundred microliters of the FcεRIα fusion protein was added to wells of the 96-well plates, and the plate was incubated at 4° C. for 20 hr and washed twice with PBS/T (PBS containing 0.05% Tween-20). The non-specific binding sites in each of the wells were blocked with 200 μl of blocking buffer (PBS containing 1% of BSA and 1% of goat serum) at 37° C. for 2 hr. The plates were then washed 4 times with PBS/T and stored frozen at -20° C. The plates were thawed at room temperature just before use.
IgE was biotinylated as follows. Ten microliters of a 40 mg/ml sulfosuccimidyl 6-(biotinamido)-hexanolate (Pierce, Rockford, Ill.) in dimethylsulphoxide was added to 1 ml of 1 mg/ml IgE in sodium bicarbonate buffer, pH 8.0. After a 4 hr incubation at room temperature, the biotinylation was terminated by the addition of 25 μl of 2M Tris hydrochloride, pH 8 and the resulting biotinylated IgE was diayzed against PBS.
One hundred microliter of this solution was added to wells of a 96-well plate which had been previously coated with Fc-FcεRIα. […] After an additional one hour incubation at room temperature,the plate was again washed four times with PBS/T. The reaction with Avidin-HRP was developed by the addition of 100 μl of K-blue (Elisa Technologies, Lexington, Ky.) to each well.

Assay [3] has as its system IgE/FcεRI. As to the kind of experiment: in situ rat passive cutaneous anaphylaxis (PCA) model. The class given is in vivo, Sprague Dawley rats. Particulars: in situ rat PCA model. An excerpt:
The tetracyclic compounds that antagonized the IgE and FcεRIα interaction identified in the protein-based assay were further evaluated in the rat PCA model (Haak-Frendscho, et al., J. Immunol., 151:351-358, 1993). […] Mouse anti-dinitrophenyl IgE (Sigma ImmunoChemicals, St. Louis, Mo.) is a bifunctional antibody which binds to dinitrophenyl as well as FcεRI. Exposure of anti-dinitrophenyl-IgE to dinitrophenyl-albumin causes aggregation of the antibody and induces the IgE mediated immune response. […] Fifty microliters of these solutions were injected into the skin of the shaved back of Sprague Dawley rats (Taconic, Germantown, N.Y.). As a positive control, the same amount of anti-dinitrophenyl-IgE in the absence of a tetracyclic compound was injected into the skin of the same rat at a different site. After a period of two hours the sensitized rats were challenged with an intravenous injection of 1 mg/ml of dinitrophenyl-human albumin (Sigma ImmunoChemicals, St. Louis, Mo.) in 1% Evan's blue dye. Thirty minute later, the rats were killed and skinned. Percent inhibition was calculated by the reduction of blue dye at the tetracyclic compound treated injection sites versus the positive control sites.

Assay [4] concerns rat basophil leukemia cells (RBL cells). As to the kind of experiment: Hexosaminidase release assay. Format: cell-based. Particulars: read-out: % Inhibition of IgE mediated hexosaminidase release. The procedure: Tetracyclic Compounds that antagonized the IgE and FcεRIα interaction identified in the protein-based assay and cell-based assay were further evaluated in a screening assay using rat basophil leukemia cells (RBL cells). […] About 2×10^5 RBL cells were seeded per well in a 96 well plate and were incubated overnight at 37° C. A mixture of biotinylated mouse IgE (100 μl of 0.125 μg/ml) and a tetracyclic compound, e.g. compound 2, in medium was added lo each well and was incubated for 1 hour at 37° C. The cells were then washed twice with triggering buffer (119 mM NaCl, 5 mM KCl, 25 mM disodium PIPES, 5.6 mM glucose, 1 mM CaCl2, 0.1% BSA), and pre-incubated in triggering buffer for 10 min. at 37° C. One hundred microliters of 0.02 μg/ml streptavidin in triggering buffer was then added and the cells were incubated for an additional 30 min. at 37° C. The 96 well plate is then centrifuged at 4° C. to pellet all cells, and 80 μl of the supernatant is harvested on ice and transferred to another 96 well plate. As a positive control, two aliquots of about 2×10^5 RBL cells were lysed with 100 μl of 0.2% Triton in triggering buffer, and the supernatant was harvested after centrifugation to pellet all cell debris. Addition of streptavidin to RBL cells, which have been incubated with biotinylated IgE will trigger the release of IgE mediated allergy mediators, such as histamine. Antagonization of IgE/FcεRI binding by a tetracyclic compound results in the release of a reduced level of allergy mediators. The release of allergy mediators was quantitated by assaying for the presence of the enzyme hexosaminidase in the supernatant The concentration of hexosaminidase was determined by hydrolysis of its substrate, p-NAG (p-nitrophenyl-N-acetate-[…], Sigma Chemical Co.) in citrate buffer (pH 4.5) at 37° C. for 1 hr.

T1 sequence (P12319 26-257): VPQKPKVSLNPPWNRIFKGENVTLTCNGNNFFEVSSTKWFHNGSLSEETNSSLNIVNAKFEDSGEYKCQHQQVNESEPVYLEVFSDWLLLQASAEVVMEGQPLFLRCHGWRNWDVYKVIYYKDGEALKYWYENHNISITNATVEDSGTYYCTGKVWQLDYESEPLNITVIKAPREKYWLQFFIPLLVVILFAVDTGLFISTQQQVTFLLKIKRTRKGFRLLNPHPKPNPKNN
T1 sequence (P01854 whole entry): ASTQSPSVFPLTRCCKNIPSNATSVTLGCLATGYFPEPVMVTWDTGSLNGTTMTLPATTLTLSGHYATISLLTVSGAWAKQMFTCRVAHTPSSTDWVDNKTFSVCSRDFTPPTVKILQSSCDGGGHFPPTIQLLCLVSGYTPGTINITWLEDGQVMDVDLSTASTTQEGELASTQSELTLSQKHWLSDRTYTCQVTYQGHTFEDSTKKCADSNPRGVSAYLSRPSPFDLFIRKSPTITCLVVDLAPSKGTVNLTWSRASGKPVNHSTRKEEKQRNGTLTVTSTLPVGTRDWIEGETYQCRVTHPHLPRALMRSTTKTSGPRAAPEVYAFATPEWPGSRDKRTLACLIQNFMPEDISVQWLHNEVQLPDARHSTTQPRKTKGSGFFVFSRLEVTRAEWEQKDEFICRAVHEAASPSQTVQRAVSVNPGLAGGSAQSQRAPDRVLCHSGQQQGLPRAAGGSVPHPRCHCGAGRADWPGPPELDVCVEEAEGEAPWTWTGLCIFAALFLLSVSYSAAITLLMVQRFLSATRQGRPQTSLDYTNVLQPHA
T1 sequence (Q01362 whole entry partner): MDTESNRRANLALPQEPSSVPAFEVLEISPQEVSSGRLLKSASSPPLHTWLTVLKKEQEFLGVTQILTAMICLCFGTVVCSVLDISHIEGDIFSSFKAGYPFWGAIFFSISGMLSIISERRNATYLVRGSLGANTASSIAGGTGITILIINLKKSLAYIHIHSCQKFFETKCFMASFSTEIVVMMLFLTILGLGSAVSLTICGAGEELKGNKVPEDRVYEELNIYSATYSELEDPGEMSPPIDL
T1 sequence (P30273 19-86 partner): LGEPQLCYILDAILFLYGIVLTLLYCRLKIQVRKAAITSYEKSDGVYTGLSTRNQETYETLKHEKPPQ

Take `O=C(O)c1c(Cl)c(Cl)c(Cl)c(Cl)c1-c1c2cc(I)c(=O)c(I)c-2oc2c(I)c(O)c(I)cc12` (single isomer, unassigned) [Compound 2]: the “% Inhibition of IgE-FcεRI binding” value in assay [1] (10 μg/ml) is on record as 62%. Further, in assay [1], the IC50 is 5.65 µM. Besides, in assay [2], the “IC50, inhibition of IgE/FcεRI binding” value was 0.38 µg/mL and the “% Inhibition of IgE/FcεRI binding” value is listed as 100%. For the same compound, the “IC50, inhibition of anaphylaxis in the rat PCA model” value in assay [3] is 1.10 µg/mL. The inhibition at 0.1 µg/mL in assay [4] (0.1 μg/ml) was found to be 11%. Moreover, in assay [4] (0.62 μg/ml), the inhibition at 0.62 µg/mL was determined as 19%. Also, the inhibition at 1.25 µg/mL in assay [4] (1.25 μg/ml) came out at 75%. The inhibition at 2.5 µg/mL in assay [4] (2.5 μg/ml) amounted to 96%. For the same compound, in assay [4] (5 μg/ml), the inhibition at 5 µg/mL was found to be 94%.
As for `CCOC(=O)c1c(Cl)c(Cl)c(Cl)c(Cl)c1-c1c2cc(Br)c(=O)c(Br)c-2oc2c(Br)c(O)c(Br)cc12` [Compound 3], in assay [2], the “IC50, inhibition of IgE/FcεRI binding” value was 4.30 µg/mL and the “% Inhibition of IgE/FcεRI binding” value worked out at 90%.
As to `CCOC(=O)c1ccccc1-c1c2cc(Br)c(=O)c(Br)c-2oc2c(Br)c(O)c(Br)cc12` [Compound 4], at 10 µg/mL the inhibition in assay [1] (10 μg/ml) was 93%. Further, in assay [1], the IC50 was 5.33 µM. Besides, in assay [2], the “IC50, inhibition of IgE/FcεRI binding” value stood at 0.82 µg/mL and the “% Inhibition of IgE/FcεRI binding” value worked out at 98%. Moreover, the “IC50, inhibition of anaphylaxis in the rat PCA model” value in assay [3] is 2.90 µg/mL.
Turning to `O=C(O)c1c(Cl)ccc(Cl)c1-c1c2cc(I)c(=O)c(I)c-2oc2c(I)c(O)c(I)cc12` [Compound 5], in assay [2], the “IC50, inhibition of IgE/FcεRI binding” value worked out at 0.56 µg/mL and the “% Inhibition of IgE/FcεRI binding” value was 99%.
On the same counts, the results for `O=C(O)c1c(Cl)c(Cl)c(Cl)c(Cl)c1-c1c2ccc(=O)c(O)c-2oc2c(O)c(O)ccc12` [Compound 6] are 0.63 µg/mL and 83%.
`COC(=O)c1ccccc1-c1c2cc(Br)c(=O)c(Br)c-2oc2c(Br)c(O)c(Br)cc12` [Compound 7] displayed an inhibition at 10 µg/mL in assay [1] (10 μg/ml) of 84%. Also, the IC50 in assay [1] was 6.65 µM. In assay [2], the “IC50, inhibition of IgE/FcεRI binding” value is 1.46 µg/mL and the “% Inhibition of IgE/FcεRI binding” value stood at 87%.
`O=c1c(Br)cc2c(-c3ccccc3S(=O)(=O)O)c3cc(Br)c(O)c(O)c3oc-2c1O` [Compound 8]: in assay [2], the “IC50, inhibition of IgE/FcεRI binding” value worked out at 0.65 µg/mL and the “% Inhibition of IgE/FcεRI binding” value is reported as 87%.
